In ChEMBL document CHEMBL1130085, “Substituted 3-(phenylsulfonyl)-1-phenylimidazolidine-2,4-dione derivatives as novel nonpeptide inhibitors of human heart chymase” (J Med Chem, 1997):

Assays:
[1] = target: Chymotrypsinogen A (Bos taurus, UniProt P00766); experiment: Inhibitory activity against bovine pancreas alpha-chymotrypsin in vitro
[2] = target: T1, Cathepsin G (Homo sapiens, UniProt P08311); experiment: Inhibitory activity against human neutrophil cathepsin G.
T1 sequence (P08311 whole entry): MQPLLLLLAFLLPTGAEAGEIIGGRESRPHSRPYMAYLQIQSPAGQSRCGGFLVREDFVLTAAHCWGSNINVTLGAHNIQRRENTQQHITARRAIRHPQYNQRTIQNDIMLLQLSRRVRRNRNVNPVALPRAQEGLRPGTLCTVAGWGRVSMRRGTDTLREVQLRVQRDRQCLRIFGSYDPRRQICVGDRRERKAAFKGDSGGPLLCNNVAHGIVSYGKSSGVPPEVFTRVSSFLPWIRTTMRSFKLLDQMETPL

[3] = target: T2, Chymase (Homo sapiens, UniProt P23946); experiment: Inhibitory activity against human heart chymase in vitro.
T2 sequence (P23946 whole entry): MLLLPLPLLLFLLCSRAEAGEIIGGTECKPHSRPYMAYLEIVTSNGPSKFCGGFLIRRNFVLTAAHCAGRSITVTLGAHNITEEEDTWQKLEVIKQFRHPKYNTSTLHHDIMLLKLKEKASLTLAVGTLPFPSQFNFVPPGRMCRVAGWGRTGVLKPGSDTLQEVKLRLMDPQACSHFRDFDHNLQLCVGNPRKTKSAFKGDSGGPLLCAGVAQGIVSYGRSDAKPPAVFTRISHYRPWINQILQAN

SMILES	IC50 [1]	IC50 [2]	IC50 [3]
O=C1CN(c2ccccc2)C(=O)N1S(=O)(=O)c1ccc(Oc2ccccc2)cc1	8 µM	3.7 µM	
O=C(O)c1ccc(N2CC(=O)N(S(=O)(=O)c3ccc(Cl)cc3)C2=O)cc1	42 µM	> 100 µM	
COc1ccc(N2CC(=O)N(S(=O)(=O)c3ccc(Cl)cc3)C2=O)cc1OC	> 100 µM	> 100 µM	14 µM
COc1ccc(S(=O)(=O)N2C(=O)CN(c3ccccc3)C2=O)cc1OC	> 100 µM	4.1 µM	
COC(=O)Cc1cccc(S(=O)(=O)N2C(=O)CN(c3ccccc3)C2=O)c1	4 µM	5.4 µM	
O=C1CN(S(=O)(=O)c2ccc(Cl)cc2)C(=O)N1c1ccc(Cl)cc1	> 100 µM		> 100 µM
O=C1CN(c2ccccc2)C(=O)N1S(=O)(=O)c1ccc(Cl)c(Cl)c1	3.8 µM		0.018 µM
COC(=O)c1cccc(S(=O)(=O)N2C(=O)CN(c3ccccc3)C2=O)c1	1.7 µM		
O=C1CN(c2ccccc2)C(=O)N1S(=O)(=O)c1ccc(Br)cc1	2.4 µM		0.17 µM
O=C1CN(c2ccccc2)C(=O)N1S(=O)(=O)c1ccccc1Cl	1.2 µM	2.2 µM	1.1 µM
Cc1ccc(N2CC(=O)N(S(=O)(=O)c3ccc(Cl)c(Cl)c3)C2=O)cc1C	63 µM		0.02 µM
Cc1ccc(N2CC(=O)N(S(=O)(=O)c3ccc(Cl)cc3)C2=O)cc1C	43 µM	3.7 µM	0.035 µM
CN1CCN(C(=O)c2cccc(S(=O)(=O)N3C(=O)CN(c4ccccc4)C3=O)c2)CC1	1.4 µM	4.8 µM	0.9 µM
O=C1CN(C2CCCCC2)C(=O)N1S(=O)(=O)c1ccc(Cl)cc1	30 µM		35 µM
O=C1CN(c2ccccc2)C(=O)N1S(=O)(=O)c1ccccc1	1.4 µM	4.5 µM	
O=C1CN(c2ccccc2Oc2ccccc2)C(=O)N1S(=O)(=O)c1ccc(Cl)cc1	37 µM	5.9 µM	
O=C1CN(c2ccccc2Cl)C(=O)N1S(=O)(=O)c1ccc(Cl)cc1	20 µM	2 µM	0.22 µM
COC(=O)c1ccc(S(=O)(=O)N2C(=O)CN(c3ccccc3)C2=O)cc1	1.8 µM		
O=C1CN(c2cccc(Cl)c2)C(=O)N1S(=O)(=O)c1ccc(Cl)cc1	0.2 µM		0.066 µM
O=C1CN(c2ccccc2)C(=O)N1S(=O)(=O)c1ccc(Cl)cc1	1.1 µM		
CN1CCN(C(=O)c2ccc(S(=O)(=O)N3C(=O)CN(c4ccccc4)C3=O)cc2)CC1	6.4 µM		3.3 µM
COc1ccc(S(=O)(=O)N2C(=O)CN(c3ccccc3)C2=O)cc1	5.8 µM	4.2 µM	

More lines, now with the values ahead:

IC50 [1]	IC50 [2]	IC50 [3]	SMILES
> 100 µM	2.5 µM	0.13 µM	O=C1CN(c2ccccc2)C(=O)N1S(=O)(=O)c1cccc(Cl)c1
73 µM			O=C(O)c1ccccc1N1CC(=O)N(S(=O)(=O)c2ccc(Cl)cc2)C1=O
44 µM	1.9 µM		O=C(O)c1ccc(S(=O)(=O)N2C(=O)CN(c3ccccc3)C2=O)cc1
11 µM	6.5 µM		COC(=O)Cc1ccc(S(=O)(=O)N2C(=O)CN(c3ccccc3)C2=O)cc1
0.23 µM	3 µM	> 100 µM	O=C1CN(c2ccccc2)C(=O)N1C(=O)c1ccc(Cl)cc1
4 µM	22 µM	0.023 µM	O=C1CN(c2ccc(Cl)c(Cl)c2)C(=O)N1S(=O)(=O)c1ccc(Cl)cc1
2 µM		0.03 µM	Cc1ccc(S(=O)(=O)N2C(=O)CN(c3ccccc3)C2=O)cc1C
0.048 µM	7 µM	20 µM	O=C1CN(c2ccccc2)C(=O)N1C(=O)c1ccccc1
0.73 µM			N#Cc1cccc(S(=O)(=O)N2C(=O)CN(c3ccccc3)C2=O)c1
3.7 µM	3.7 µM	0.17 µM	O=C1CN(c2ccc(Cl)c(Cl)c2)C(=O)N1S(=O)(=O)c1ccc(Cl)c(Cl)c1
8.5 µM	1 µM		O=C(O)c1cccc(S(=O)(=O)N2C(=O)CN(c3ccccc3)C2=O)c1
1.1 µM	1.8 µM	1.8 µM	Cc1ccccc1S(=O)(=O)N1C(=O)CN(c2ccccc2)C1=O
> 100 µM	> 100 µM	> 100 µM	CC(=O)Nc1ccc(N2CC(=O)N(S(=O)(=O)c3ccc(Cl)cc3)C2=O)cc1
52 µM		33 µM	O=C1CN(c2ncccn2)C(=O)N1S(=O)(=O)c1ccc(Cl)cc1
> 100 µM	> 100 µM	27 µM	CN1CCN(C(=O)c2ccc(N3CC(=O)N(S(=O)(=O)c4ccc(Cl)cc4)C3=O)cc2)CC1
> 100 µM		18 µM	O=C1CN(c2ccccn2)C(=O)N1S(=O)(=O)c1ccc(Cl)cc1
> 100 µM	> 100 µM	0.022 µM	COc1ccc(S(=O)(=O)N2C(=O)CN(c3ccc(C)c(C)c3)C2=O)cc1OC
15 µM			N#Cc1ccc(S(=O)(=O)N2C(=O)CN(c3ccccc3)C2=O)cc1
8 µM	6.5 µM		O=C1CN(c2ccccc2)C(=O)N1S(=O)(=O)c1ccc([N+](=O)[O-])cc1
37 µM		> 100 µM	O=C1CN(c2ccccc2)C(=O)N1S(=O)(=O)Cc1ccccc1
> 100 µM			Cc1ccc(N2CC(=O)N(S(=O)(=O)c3ccc(C)c(C)c3)C2=O)cc1C
> 100 µM	> 100 µM		O=C(O)c1cccc(N2CC(=O)N(S(=O)(=O)c3ccc(Cl)cc3)C2=O)c1
2.6 µM	1.5 µM	0.37 µM	O=C1CN(c2ccccc2)C(=O)N1S(=O)(=O)c1ccc(F)cc1
> 100 µM	> 100 µM	> 100 µM	O=C(OCN1C(=O)CN(c2ccccc2)C1=O)c1ccccc1
